Reference: ChEMBL document CHEMBL2074068, “Flavonoid permeability across an in situ model of the blood-brain barrier” (Free Radic Biol Med, 2004)

Columns and labels:
[1] = molecular target: T1, ATP-dependent translocase ABCB1 (Homo sapiens, UniProt P08183); assay: TP_TRANSPORTER: cell accumulation of colchicine in the presence of Naringenin at a concentration of 100uM in MDR1-expressing MDCK cells; type: functional, cell-based; details: dog
[2] = molecular target: T1, ATP-dependent translocase ABCB1; assay: TP_TRANSPORTER: cell accumulation in MDR1-expressing MDCK cells; type: functional, cell-based; details: dog

T1 sequence (P08183 whole entry): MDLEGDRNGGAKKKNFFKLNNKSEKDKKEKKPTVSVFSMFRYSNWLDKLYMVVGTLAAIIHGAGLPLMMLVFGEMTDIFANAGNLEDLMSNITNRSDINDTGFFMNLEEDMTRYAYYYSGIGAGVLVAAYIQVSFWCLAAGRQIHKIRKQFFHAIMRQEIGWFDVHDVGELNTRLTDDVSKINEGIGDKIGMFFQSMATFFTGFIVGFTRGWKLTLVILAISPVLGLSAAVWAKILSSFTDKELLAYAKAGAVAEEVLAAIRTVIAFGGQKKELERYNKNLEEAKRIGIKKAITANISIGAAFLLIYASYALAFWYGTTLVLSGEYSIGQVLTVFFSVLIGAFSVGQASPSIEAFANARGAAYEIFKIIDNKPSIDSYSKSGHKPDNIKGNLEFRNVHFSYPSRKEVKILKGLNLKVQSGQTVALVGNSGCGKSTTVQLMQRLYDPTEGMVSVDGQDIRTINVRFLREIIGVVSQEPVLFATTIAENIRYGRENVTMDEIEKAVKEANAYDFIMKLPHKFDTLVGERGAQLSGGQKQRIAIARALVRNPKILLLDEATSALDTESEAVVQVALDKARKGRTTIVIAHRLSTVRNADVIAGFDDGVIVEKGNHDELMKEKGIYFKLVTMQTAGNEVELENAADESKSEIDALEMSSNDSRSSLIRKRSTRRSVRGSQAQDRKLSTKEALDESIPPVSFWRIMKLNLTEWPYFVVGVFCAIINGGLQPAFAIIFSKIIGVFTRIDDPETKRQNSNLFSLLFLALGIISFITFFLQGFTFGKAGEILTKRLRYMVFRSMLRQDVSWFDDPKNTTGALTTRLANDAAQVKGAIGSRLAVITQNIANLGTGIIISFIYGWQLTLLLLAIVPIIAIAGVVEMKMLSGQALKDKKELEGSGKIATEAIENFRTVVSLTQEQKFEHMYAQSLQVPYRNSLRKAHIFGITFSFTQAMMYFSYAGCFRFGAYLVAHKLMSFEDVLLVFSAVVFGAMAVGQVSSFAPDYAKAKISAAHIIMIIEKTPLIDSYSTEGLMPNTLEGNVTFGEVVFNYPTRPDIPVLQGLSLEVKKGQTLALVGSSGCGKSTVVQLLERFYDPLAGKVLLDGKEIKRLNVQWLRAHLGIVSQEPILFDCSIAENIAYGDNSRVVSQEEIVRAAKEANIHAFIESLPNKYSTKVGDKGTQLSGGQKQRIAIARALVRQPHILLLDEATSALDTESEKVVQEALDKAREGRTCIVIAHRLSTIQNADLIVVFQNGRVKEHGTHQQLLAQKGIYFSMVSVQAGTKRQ

What does the source list for `O=C1C[C@@H](c2ccc(O)cc2)Oc2cc(O)cc(O)c21` [NARINGENIN]?
Activity [1]: inhibitor [+]; Activity [2]: substrate [+]
